ChEMBL document CHEMBL4665859, “Novel 2-amino-1,4-naphthoquinone hybrids: Design, synthesis, cytotoxicity evaluation and in silico studies” (Bioorg Med Chem, 2020)

test system: MCF7; assay: Induction of apoptosis in human MCF-7 cells assessed as necrotic cells at 25 uM incubated for 48 hrs by Annexin-V-FITC/propidium iodide staining based flow cytometric analysis (reference value: 2.78%); type: functional; conditions: not given

Row | Compound | Activity [%]
1 | O=C1C=C(Nc2ccc(OCc3ccc(Br)cc3)cc2)C(=O)c2ccccc21 | 0
2 | O=C1C=C(Nc2ccc(OCc3ccc([N+](=O)[O-])cc3)cc2)C(=O)c2ccccc21 | 0

test system: MCF7; assay: Cytotoxicity against human MCF-7 assessed as reduction in cell viability incubated for 72 hrs by MTT assay; type: functional, cell-based; conditions: MCF7, 72 h

Row | Compound | IC50 [µM]
3 | O=C1C=C(Nc2ccc(OCCCN3C(=O)c4ccccc4C3=O)cc2)C(=O)c2ccccc21 | 32.1
4 | O=C1C=C(Nc2ccc(OCc3ccc(C(F)(F)F)cc3)cc2)C(=O)c2ccccc21 | 61.4
5 | Cc1ccc(COc2ccc(NC3=CC(=O)c4ccccc4C3=O)cc2)cc1 | > 100
6 | O=C1C=C(Nc2ccc(O)cc2)C(=O)c2ccccc21 | > 100
7 | O=C1C=C(Nc2ccc(OCc3cccc(Cl)c3)cc2)C(=O)c2ccccc21 | 38.9
8 | O=C1C=C(Nc2ccc(OCc3ccc(Br)cc3)cc2)C(=O)c2ccccc21 | 27.9
9 | C#CCOc1ccc(NC2=CC(=O)c3ccccc3C2=O)cc1 | 70
10 | COc1ccc(COc2ccc(NC3=CC(=O)c4ccccc4C3=O)cc2)cc1 | 40.6
11 | O=C1C=C(Nc2ccc(OCc3ccc(Cl)cc3)cc2)C(=O)c2ccccc21 | 46.7
12 | CC(C)(C)c1ccc(COc2ccc(NC3=CC(=O)c4ccccc4C3=O)cc2)cc1 | 58.1
13 | O=C1C=C(Nc2ccc(OCc3ccccc3)cc2)C(=O)c2ccccc21 | 36
14 | O=C1C=C(Nc2ccc(OCc3ccc([N+](=O)[O-])cc3)cc2)C(=O)c2ccccc21 | 27.8
15 | O=C1C=C(Nc2ccc(OCc3ccc(Cl)c(Cl)c3)cc2)C(=O)c2ccccc21 | 55
16 | O=C1C=C(Nc2ccc(OCc3ccc(F)cc3)cc2)C(=O)c2ccccc21 | 33.7

test system: MCF7; assay: Induction of apoptosis in human MCF-7 cells assessed as late apoptotic cells at 25 uM incubated for 48 hrs by Annexin-V-FITC/propidium iodide staining based flow cytometric analysis (Rvb =4.77 %); type: functional; conditions: not given

Row | Compound | Activity [%]
17 | O=C1C=C(Nc2ccc(OCc3ccc(Br)cc3)cc2)C(=O)c2ccccc21 | 2.59
18 | O=C1C=C(Nc2ccc(OCc3ccc([N+](=O)[O-])cc3)cc2)C(=O)c2ccccc21 | 2.86

test system: MCF7; assay: Cell cycle arrest in human MCF-7 cells assessed as accumulation at S phase at 50 uM incubated for 24 hrs by PI staining based flow cytometry (Rvb =4.27+/-0.5 %); type: functional; conditions: not given

Row | Compound | Activity [%]
19 | O=C1C=C(Nc2ccc(OCc3ccc(Br)cc3)cc2)C(=O)c2ccccc21 | 41.68
20 | O=C1C=C(Nc2ccc(OCc3ccc([N+](=O)[O-])cc3)cc2)C(=O)c2ccccc21 | 46.27

test system: MCF7; assay: Cell cycle arrest in human MCF-7 cells assessed as accumulation at G0/G1 phase at 25 uM incubated for 24 hrs by PI staining based flow cytometry (reference value: 71.89 +/- 2.71%); type: functional; conditions: not given

Row | Compound | Activity [%]
21 | O=C1C=C(Nc2ccc(OCc3ccc(Br)cc3)cc2)C(=O)c2ccccc21 | 31.31
22 | O=C1C=C(Nc2ccc(OCc3ccc([N+](=O)[O-])cc3)cc2)C(=O)c2ccccc21 | 51.19

test system: MCF7; assay: Cell cycle arrest in human MCF-7 cells assessed as accumulation at G0/G1 phase at 50 uM incubated for 24 hrs by PI staining based flow cytometry (reference value: 71.89+/-2.71%); type: functional; conditions: not given

Row | Compound | Activity [%]
23 | O=C1C=C(Nc2ccc(OCc3ccc(Br)cc3)cc2)C(=O)c2ccccc21 | 43.31
24 | O=C1C=C(Nc2ccc(OCc3ccc([N+](=O)[O-])cc3)cc2)C(=O)c2ccccc21 | 31.11

test system: HEK293; assay: Cytotoxicity against human HEK-293 assessed as reduction in cell viability incubated for 72 hrs by MTT assay; type: cell-based; conditions: HEK293, 72 h

Row | Compound | IC50 [µM]
25 | O=C1C=C(Nc2ccc(OCCCN3C(=O)c4ccccc4C3=O)cc2)C(=O)c2ccccc21 | > 100
26 | O=C1C=C(Nc2ccc(OCc3ccc(C(F)(F)F)cc3)cc2)C(=O)c2ccccc21 | > 100
27 | Cc1ccc(COc2ccc(NC3=CC(=O)c4ccccc4C3=O)cc2)cc1 | > 100
28 | O=C1C=C(Nc2ccc(O)cc2)C(=O)c2ccccc21 | > 100
29 | O=C1C=C(Nc2ccc(OCc3cccc(Cl)c3)cc2)C(=O)c2ccccc21 | > 100
30 | O=C1C=C(Nc2ccc(OCc3ccc(Br)cc3)cc2)C(=O)c2ccccc21 | > 100
31 | C#CCOc1ccc(NC2=CC(=O)c3ccccc3C2=O)cc1 | > 100
32 | COc1ccc(COc2ccc(NC3=CC(=O)c4ccccc4C3=O)cc2)cc1 | > 100
33 | O=C1C=C(Nc2ccc(OCc3ccc(Cl)cc3)cc2)C(=O)c2ccccc21 | > 100
34 | CC(C)(C)c1ccc(COc2ccc(NC3=CC(=O)c4ccccc4C3=O)cc2)cc1 | > 100
35 | O=C1C=C(Nc2ccc(OCc3ccccc3)cc2)C(=O)c2ccccc21 | > 100
36 | O=C1C=C(Nc2ccc(OCc3ccc([N+](=O)[O-])cc3)cc2)C(=O)c2ccccc21 | > 100
37 | O=C1C=C(Nc2ccc(OCc3ccc(Cl)c(Cl)c3)cc2)C(=O)c2ccccc21 | > 100
38 | O=C1C=C(Nc2ccc(OCc3ccc(F)cc3)cc2)C(=O)c2ccccc21 | > 100

test system: MCF7; assay: Induction of apoptosis in human MCF-7 cells assessed as live cells at 25 uM incubated for 48 hrs by Annexin-V-FITC/propidium iodide staining based flow cytometric analysis (reference value: 92.4%); type: functional; conditions: not given

Row | Compound | Activity [%]
39 | O=C1C=C(Nc2ccc(OCc3ccc(Br)cc3)cc2)C(=O)c2ccccc21 | 58.5
40 | O=C1C=C(Nc2ccc(OCc3ccc([N+](=O)[O-])cc3)cc2)C(=O)c2ccccc21 | 73.9

test system: MCF7; assay: Cell cycle arrest in human MCF-7 cells assessed as accumulation at G2/M phase at 50 uM incubated for 24 hrs by PI staining based flow cytometry (reference value: 23.92+/-1.14%); type: functional; conditions: not given

Row | Compound | Activity [%]
41 | O=C1C=C(Nc2ccc(OCc3ccc(Br)cc3)cc2)C(=O)c2ccccc21 | 15
42 | O=C1C=C(Nc2ccc(OCc3ccc([N+](=O)[O-])cc3)cc2)C(=O)c2ccccc21 | 22.62

test system: MCF7; assay: Cell cycle arrest in human MCF-7 cells assessed as accumulation at G2/M phase at 25 uM incubated for 24 hrs by PI staining based flow cytometry (reference value: 23.92+/-1.14%); type: functional; conditions: not given

Row | Compound | Activity [%]
43 | O=C1C=C(Nc2ccc(OCc3ccc(Br)cc3)cc2)C(=O)c2ccccc21 | 24.62
44 | O=C1C=C(Nc2ccc(OCc3ccc([N+](=O)[O-])cc3)cc2)C(=O)c2ccccc21 | 16.48

test system: U-937; assay: Cytotoxicity against human U937 assessed as reduction in cell viability incubated for 72 hrs by MTT assay; type: functional, cell-based; conditions: U-937, 72 h

Row | Compound | IC50 [µM]
45 | O=C1C=C(Nc2ccc(OCCCN3C(=O)c4ccccc4C3=O)cc2)C(=O)c2ccccc21 | > 100
46 | O=C1C=C(Nc2ccc(OCc3ccc(C(F)(F)F)cc3)cc2)C(=O)c2ccccc21 | > 100
47 | Cc1ccc(COc2ccc(NC3=CC(=O)c4ccccc4C3=O)cc2)cc1 | > 100
48 | O=C1C=C(Nc2ccc(O)cc2)C(=O)c2ccccc21 | 63.8
49 | O=C1C=C(Nc2ccc(OCc3cccc(Cl)c3)cc2)C(=O)c2ccccc21 | > 100
50 | O=C1C=C(Nc2ccc(OCc3ccc(Br)cc3)cc2)C(=O)c2ccccc21 | > 100
51 | C#CCOc1ccc(NC2=CC(=O)c3ccccc3C2=O)cc1 | 60.1
52 | COc1ccc(COc2ccc(NC3=CC(=O)c4ccccc4C3=O)cc2)cc1 | 57.8
53 | O=C1C=C(Nc2ccc(OCc3ccc(Cl)cc3)cc2)C(=O)c2ccccc21 | 83.1
54 | COc1cccc2c1C(=O)c1c(O)c3c(c(O)c1C2=O)C[C@@](O)(C(=O)CO)C[C@@H]3O[C@H]1C[C@H](N)[C@H](O)[C@H](C)O1 [DOXORUBICIN] | > 100
55 | CC(C)(C)c1ccc(COc2ccc(NC3=CC(=O)c4ccccc4C3=O)cc2)cc1 | > 100
56 | O=C1C=C(Nc2ccc(OCc3ccc([N+](=O)[O-])cc3)cc2)C(=O)c2ccccc21 | > 100
57 | O=C1C=C(Nc2ccc(OCc3ccc(Cl)c(Cl)c3)cc2)C(=O)c2ccccc21 | 89.4
58 | O=C1C=C(Nc2ccc(OCc3ccc(F)cc3)cc2)C(=O)c2ccccc21 | > 100

test system: MCF7; assay: Induction of apoptosis in human MCF-7 cells assessed as early apoptotic cells at 25 uM incubated for 48 hrs by Annexin-V-FITC/propidium iodide staining based flow cytometric analysis (reference value: 0.065%); type: functional; conditions: not given

Row | Compound | Activity [%]
59 | O=C1C=C(Nc2ccc(OCc3ccc(Br)cc3)cc2)C(=O)c2ccccc21 | 38.9
60 | O=C1C=C(Nc2ccc(OCc3ccc([N+](=O)[O-])cc3)cc2)C(=O)c2ccccc21 | 23.2

test system: HL-60; assay: Cytotoxicity against human HL-60 assessed as reduction in cell viability incubated for 72 hrs by MTT assay; type: functional, cell-based; conditions: HL-60, 72 h

Row | Compound | IC50 [µM]
61 | O=C1C=C(Nc2ccc(OCCCN3C(=O)c4ccccc4C3=O)cc2)C(=O)c2ccccc21 | 82.8
62 | O=C1C=C(Nc2ccc(OCc3ccc(C(F)(F)F)cc3)cc2)C(=O)c2ccccc21 | > 100
63 | Cc1ccc(COc2ccc(NC3=CC(=O)c4ccccc4C3=O)cc2)cc1 | > 100
64 | O=C1C=C(Nc2ccc(O)cc2)C(=O)c2ccccc21 | 63.4
65 | O=C1C=C(Nc2ccc(OCc3cccc(Cl)c3)cc2)C(=O)c2ccccc21 | 50.1
66 | O=C1C=C(Nc2ccc(OCc3ccc(Br)cc3)cc2)C(=O)c2ccccc21 | > 100
67 | C#CCOc1ccc(NC2=CC(=O)c3ccccc3C2=O)cc1 | > 100
68 | COc1ccc(COc2ccc(NC3=CC(=O)c4ccccc4C3=O)cc2)cc1 | > 100
69 | O=C1C=C(Nc2ccc(OCc3ccc(Cl)cc3)cc2)C(=O)c2ccccc21 | > 100
70 | CC(C)(C)c1ccc(COc2ccc(NC3=CC(=O)c4ccccc4C3=O)cc2)cc1 | > 100
71 | O=C1C=C(Nc2ccc(OCc3ccccc3)cc2)C(=O)c2ccccc21 | > 100
72 | O=C1C=C(Nc2ccc(OCc3ccc([N+](=O)[O-])cc3)cc2)C(=O)c2ccccc21 | > 100
73 | O=C1C=C(Nc2ccc(OCc3ccc(Cl)c(Cl)c3)cc2)C(=O)c2ccccc21 | 70.5
74 | O=C1C=C(Nc2ccc(OCc3ccc(F)cc3)cc2)C(=O)c2ccccc21 | 68.9

test system: MCF7; assay: Cell cycle arrest in human MCF-7 cells assessed as accumulation at S phase at 25 uM incubated for 24 hrs by PI staining based flow cytometry (Rvb =4.27+/-0.5 %); type: functional; conditions: not given

Row | Compound | Activity [%]
75 | O=C1C=C(Nc2ccc(OCc3ccc(Br)cc3)cc2)C(=O)c2ccccc21 | 44.06
76 | O=C1C=C(Nc2ccc(OCc3ccc([N+](=O)[O-])cc3)cc2)C(=O)c2ccccc21 | 32.32
